For 20 compounds, EC50 and inhibition results are on record in US10392383B2, “3-(1H-benzo[d]imidazol-2-yl)-1H-pyrazolo[4,3-b]pyridines and therapeutic uses thereof” (Samumed, LLC, priority 2015, dated 2019).

Broadly, the EC50 is the concentration needed to bring the measured effect to its halfway point. Broadly, the inhibition is the relative decrease from the control value, in per cent.

Type in all cases: cell-based
The subject of one assay is SW480 colon cancer cells. Briefly: Cell viability assay (CellTiter-Blue) in SW480 cells. As to conditions: Homo sapiens, 96 h, four days, CellTiter-Blue, 10 μM to 0.0045 μM. In outline:
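Approximately 2×10^3 SW480 cells per well are seeded with compound (8 points, threefold steps, top 10 μM) and incubated four days at 37 °C. CellTiter-Blue is then added for about 3 h and fluorescence read. Non-linear regression gives EC50; for values beyond 10 μM, percent inhibition at that concentration is listed.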
Background: Alamar Blue is a resazurin reagent that responds to reducing activity.

Assay [1] has as its system Wnt activity (Sp5-Luc reporter, Wnt-responsive promoter) in SW480 colon carcinoma cells. Briefly: Wnt activity screening assay: Sp5-Luc reporter gene assay in SW480 cells. The note with it: Homo sapiens, overnight incubation, 10-point curve starting from 10 μM. In outline: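 Wnt-driven firefly luciferase in SW480 colon carcinoma cells reports pathway activity after overnight compound exposure (10 μM top concentration, 3-fold steps). Signal is normalized to DMSO controls.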
In general terms: In a reporter assay the amount or activity of a reporter protein is the signal.

Assay [2] concerns primary human fibroblasts derived from IPF patients (LL29 cells) treated with TGF-β1. Briefly: Inhibition of the fibrotic process: αSMA staining in TGF-β1-treated LL29 fibroblasts. The note with it: Fibroblast; for inhibition at 10 µM: LL29 fibroblasts treated with TGF-β1, Table 4, read-out: percent inhibition at 10 μM (given in parentheses for EC50 >10 μM); for EC50: 96 h, LL29 fibroblasts treated with TGF-β1 (20 ng/mL), 4 days, Table 4. The gist of the method:
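IPF-derived LL29 fibroblasts in F12 with 1% FBS dosed with compound (11-point, 10 μM to 1.87 nM, 0.1% DMSO), then 20 ng/mL TGF-β1 after 1 h, and cultured 4 days at 37 °C. αSMA-positive cell fraction imaged after excluding SYTOX-positive cells, normalized to TGF-β1/DMSO wells; EC50 by non-linear regression, % inhibition at 10 μM if EC50 >10 μM.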

As for `CCNCc1cncc(-c2ccc3[nH]nc(-c4nc5c(-c6ccoc6)cccc5[nH]4)c3n2)c1` [Compound 314, N-((5-(3-(4-(Furan-3-yl)-1H-benzo[d]imidazol-2-yl)-1H-pyrazolo[4,3-b]pyridin-5-yl)pyridin-3-yl)methyl)ethanamine], the values for the EC50 (with SW480 colon cancer cells; in assay [1]; in assay [2]) were 584 nM, 3250 nM and over 10000 nM, respectively. The inhibition at 10 µM in assay [2] was determined as 0%.

Consider `CCC(=O)Nc1cncc(-c2ccc3[nH]nc(-c4nc5c(-c6cccs6)cccc5[nH]4)c3n2)c1` [Compound 337, N-(5-(3-(4-(Thiophen-2-yl)-1H-benzo[d]imidazol-2-yl)-1H-pyrazolo[4,3-b]pyridin-5-yl)pyridin-3-yl)propionamide], for which the figures for the EC50 (with SW480 colon cancer cells; in assay [1]; in assay [2]) were 3260 nM, 3520 nM and 680 nM, respectively.

For the compound `CN(C)c1cncc(-c2ccc3[nH]nc(-c4nc5c(-c6cccs6)cccc5[nH]4)c3n2)c1` [Compound 343, N,N-Dimethyl-5-(3-(4-(thiophen-2-yl)-1H-benzo[d]imidazol-2-yl)-1H-pyrazolo[4,3-b]pyridin-5-yl)pyridin-3-amine], the EC50 with SW480 colon cancer cells was 2360 nM; in assay [1], 1720 nM; in assay [2] it was 1180 nM.

As for `CN(C)Cc1cncc(-c2ccc3[nH]nc(-c4nc5c(-c6cccs6)cccc5[nH]4)c3n2)c1` [Compound 349, N,N-dimethyl-1-(5-(3-(4-(thiophen-2-yl)-1H-benzo[d]imidazol-2-yl)-1H-pyrazolo[4,3-b]pyridin-5-yl)pyridin-3-yl)methanamine], the EC50 in the assay with SW480 colon cancer cells was found to be 2890 nM; in assay [1] it was 4100 nM; in assay [2] it was 2500 nM.

Consider `c1csc(-c2cccc3[nH]c(-c4n[nH]c5ccc(-c6ccncc6)nc45)nc23)c1` [Compound 354, 5-(Pyridin-4-yl)-3-(4-(thiophen-2-yl)-1H-benzo[d]imidazol-2-yl)-1H-pyrazolo[4,3-b]pyridine], for which the EC50 in the assay on SW480 colon cancer cells is 2800 nM; in assay [1], 3770 nM; in assay [2] it was over 10000 nM. The inhibition at 10 µM in assay [2] amounted to 31.2%.

For `O=C(Nc1cncc(-c2ccc3[nH]nc(-c4nc5c(-c6cccs6)cccc5[nH]4)c3n2)c1)C1CC1` [Compound 356, N-(5-(3-(4-(Thiophen-2-yl)-1H-benzo[d]imidazol-2-yl)-1H-pyrazolo[4,3-b]pyridin-5-yl)pyridin-3-yl)cyclopropanecarboxamide], the EC50 in the assay on SW480 colon cancer cells was 3750 nM; in assay [1] it was 3380 nM; in assay [2], over 10000 nM. Further, in assay [2], the inhibition at 10 µM came to 0%.

In the case of `Cc1ccc(-c2cccc3[nH]c(-c4n[nH]c5ccc(-c6cncc(N)c6)nc45)nc23)s1` [Compound 395, 5-(3-(4-(5-Methylthiophen-2-yl)-1H-benzo[d]imidazol-2-yl)-1H-pyrazolo [4,3-b]pyridin-5-yl)pyridin-3-amine], the results for the EC50 (in the assay with SW480 colon cancer cells; in assay [1]; in assay [2]) were 320 nM, 78 nM and 186 nM, respectively.

For the compound `Cc1ccc(-c2cccc3[nH]c(-c4n[nH]c5ccc(-c6cncc(NC(=O)C(C)C)c6)nc45)nc23)s1` [Compound 401, N-(5-(3-(4-(5-Methylthiophen-2-yl)-1H-benzo[d]imidazol-2-yl)-1H-pyrazolo [4,3-b]pyridin-5-yl)pyridin-3-yl)isobutyramide], the EC50 turned out to be 3830 nM with SW480 colon cancer cells, 3130 nM in assay [1] and 673 nM in assay [2].

Consider `CCNCc1cncc(-c2ccc3[nH]nc(-c4nc5c(-c6cc(F)cc(NCCN(C)C)c6)cccc5[nH]4)c3n2)c1` [Compound 454, N^1-(3-(2-(5-(5-((Ethylamino)methyl)pyridin-3-yl)-1H-pyrazolo[4,3-b]pyridin-3-yl)-1H-benzo[d]imidazol-4-yl)-5-fluorophenyl)-N^2,N^2-dimethylethane-1,2-diamine], for which the EC50 in the assay with SW480 colon cancer cells worked out at 1480 nM; in assay [1], 3370 nM; in assay [2], 2400 nM.

For the compound `CC(C)Nc1cncc(-c2ccc3[nH]nc(-c4nc5c(-c6cc(F)cc(NCCN(C)C)c6)cccc5[nH]4)c3n2)c1` [Compound 460, N^1-(3-Fluoro-5-(2-(5-(5-(isopropylamino)pyridin-3-yl)-1H-pyrazolo[4,3-b]pyridin-3-yl)-1H-benzo[d]imidazol-4-yl)phenyl)-N^2,N^2-dimethylethane-1,2-diamine], the EC50 is 508 nM in the assay on SW480 colon cancer cells, 1050 nM in assay [1] and 1440 nM in assay [2].

In the case of `CCCCC(=O)Nc1cncc(-c2ccc3[nH]nc(-c4nc5c(-c6cc(F)cc(NCCN(C)C)c6)cccc5[nH]4)c3n2)c1` [Compound 467, N-(5-(3-(4-(3-((2-(Dimethylamino)ethyl)amino)-5-fluorophenyl)-1H-benzo [d]imidazol-2-yl)-1H-pyrazolo[4,3-b]pyridin-5-yl)pyridin-3-yl)pentanamide], the values for the EC50 (with SW480 colon cancer cells; in assay [1]; in assay [2]) were 1100 nM, 1300 nM and 1180 nM, respectively.

With `CN(C)CCNc1cc(F)cc(-c2cccc3[nH]c(-c4n[nH]c5ccc(-c6cncc(CNCC7CCCC7)c6)nc45)nc23)c1` [Compound 473, N^1-(3-(2-(5-(5-(((Cyclopentylmethyl)amino)methyl)pyridin-3-yl)-1H-pyrazolo[4,3-b]pyridin-3-yl)-1H-benzo[d]imidazol-4-yl)-5-fluorophenyl)-N^2,N^2-dimethylethane-1,2-diamine], the values for the EC50 (in the assay with SW480 colon cancer cells; in assay [1]; in assay [2]) were 2740 nM, 2820 nM and 1450 nM, respectively.

For the compound `CN(C)CCNc1cc(F)cc(-c2cccc3[nH]c(-c4n[nH]c5ccc(-c6ccccn6)nc45)nc23)c1` [Compound 476, N^1-(3-Fluoro-5-(2-(5-(pyridin-2-yl)-1H-pyrazolo[4,3-b]pyridin-3-yl)-1H-benzo[d]imidazol-4-yl)phenyl)-N^2,N^2-dimethylethane-1,2diamine], the EC50 in the assay on SW480 colon cancer cells was determined as 1440 nM; in assay [1], 1490 nM; in assay [2], 1080 nM.

Turning to `Cc1ccncc1-c1ccc2[nH]nc(-c3nc4c(-c5cc(F)cc(CNS(C)(=O)=O)c5)cccc4[nH]3)c2n1` [Compound 481, N-(3-Fluoro-5-(2-(5-(4-methylpyridin-3-yl)-1H-pyrazolo[4,3-b]pyridin-3-yl)-1H-benzo[d]imidazol-4-yl)benzyl)methanesulfonamide], the EC50 was 5590 nM with SW480 colon cancer cells, 1340 nM in assay [1] and 2110 nM in assay [2].

Consider `CCCC(=O)Nc1cncc(-c2ccc3[nH]nc(-c4nc5c(-c6cc(F)cc(CNS(C)(=O)=O)c6)cccc5[nH]4)c3n2)c1` [Compound 493, N-(5-(3-(4-(3-Fluoro-5-(methylsulfonamidomethyl)phenyl)-1H-benzo[d]imidazol-2-yl)-1H-pyrazolo[4,3-b]pyridin-5-yl)pyridin-3-yl)butyramide], for which the EC50 with SW480 colon cancer cells worked out at 3930 nM; in assay [1], 3220 nM; in assay [2], 2620 nM.

Consider `CS(=O)(=O)NCc1cc(F)cc(-c2cccc3[nH]c(-c4n[nH]c5ccc(-c6cncc(CNCc7ccccc7)c6)nc45)nc23)c1` [Compound 500, N-(3-(2-(5-(5-((Benzylamino)methyl)pyridin-3-yl)-1H-pyrazolo[4,3-b]pyridin-3-yl)-1H-benzo[d]imidazol-4-yl)-5-fluorobenzyl)methanesulfonamide], for which the results for the EC50 (with SW480 colon cancer cells; in assay [1]; in assay [2]) were 3100 nM, 2340 nM and 2210 nM, respectively.

Turning to `CS(=O)(=O)NCc1cc(F)cc(-c2cccc3[nH]c(-c4n[nH]c5ccc(-c6cncnc6)nc45)nc23)c1` [Compound 503, N-(3-Fluoro-5-(2-(5-(pyrimidin-5-yl)-1H-pyrazolo[4,3-b]pyridin-3-yl)-1H-benzo[d]imidazol-4-yl)benzyl)methanesulfonamide], the values for the EC50 (in the assay on SW480 colon cancer cells; in assay [1]; in assay [2]) were 8140 nM, 2890 nM and 5000 nM, respectively.

For `Fc1cccc(-c2cccc3[nH]c(-c4n[nH]c5ccc(C6CCNCC6)nc45)nc23)c1` [Compound 505, 3-(4-(3-Fluorophenyl)-1H-benzo[d]imidazol-2-yl)-5-(piperidin-4-yl)-1H-pyrazolo[4,3-b]pyridine], the values for the EC50 (in the assay on SW480 colon cancer cells; in assay [1]; in assay [2]) were 1460 nM, 3200 nM and 1700 nM, respectively.

With `Cn1cc(-c2ccc3[nH]nc(-c4nc5c(-c6cccc(F)c6)cccc5[nH]4)c3n2)cn1` [Compound 508, 3-(4-(3-Fluorophenyl)-1H-benzo[d]imidazol-2-yl)-5-(1-methyl-1H-pyrazol-4-yl)-1H-pyrazolo[4,3-b]pyridine], the EC50 with SW480 colon cancer cells stood at 1120 nM; in assay [1], 518 nM; in assay [2], 1110 nM.

For the compound `Cc1ncc(-c2ccc3[nH]nc(-c4nc5c(-c6cccc(F)c6)cccc5[nH]4)c3n2)n1C` [Compound 509, 5-(1,2-Dimethyl-1H-imidazol-5-yl)-3-(4-(3-fluorophenyl)-1H-benzo[d]imidazol-2-yl)-1H-pyrazolo[4,3-b]pyridine], the results for the EC50 (with SW480 colon cancer cells; in assay [1]; in assay [2]) were 414 nM, 160 nM and 175 nM, respectively.
